The nature of data set [1]: Permeability of the compound at […] after 3 hrs by artificial membrane permeability assay. It is filed as ADME. The following applies: PAMPA; read-out: permeability.
Data set [2] is described as follows: Kinetic solubility of the compound at pH 7.4 after 1 hr by CLND-based assay. It is filed as physicochemical. The following applies: buffer, read-out: Kinetic_solubility.
Data set [3] deals with T1, Tyrosine-protein kinase ABL1 (Homo sapiens, UniProt P00519). The data set can be described thus: Induction of human c-ABL phosphorylation at Y245/Y412 residues in bacmam-induced HEK-MSR2 cell lysates by in-cell Western blot analysis. The format is subcellular, Lysate.
T1 sequence (P00519 whole entry, the tested form may be a part): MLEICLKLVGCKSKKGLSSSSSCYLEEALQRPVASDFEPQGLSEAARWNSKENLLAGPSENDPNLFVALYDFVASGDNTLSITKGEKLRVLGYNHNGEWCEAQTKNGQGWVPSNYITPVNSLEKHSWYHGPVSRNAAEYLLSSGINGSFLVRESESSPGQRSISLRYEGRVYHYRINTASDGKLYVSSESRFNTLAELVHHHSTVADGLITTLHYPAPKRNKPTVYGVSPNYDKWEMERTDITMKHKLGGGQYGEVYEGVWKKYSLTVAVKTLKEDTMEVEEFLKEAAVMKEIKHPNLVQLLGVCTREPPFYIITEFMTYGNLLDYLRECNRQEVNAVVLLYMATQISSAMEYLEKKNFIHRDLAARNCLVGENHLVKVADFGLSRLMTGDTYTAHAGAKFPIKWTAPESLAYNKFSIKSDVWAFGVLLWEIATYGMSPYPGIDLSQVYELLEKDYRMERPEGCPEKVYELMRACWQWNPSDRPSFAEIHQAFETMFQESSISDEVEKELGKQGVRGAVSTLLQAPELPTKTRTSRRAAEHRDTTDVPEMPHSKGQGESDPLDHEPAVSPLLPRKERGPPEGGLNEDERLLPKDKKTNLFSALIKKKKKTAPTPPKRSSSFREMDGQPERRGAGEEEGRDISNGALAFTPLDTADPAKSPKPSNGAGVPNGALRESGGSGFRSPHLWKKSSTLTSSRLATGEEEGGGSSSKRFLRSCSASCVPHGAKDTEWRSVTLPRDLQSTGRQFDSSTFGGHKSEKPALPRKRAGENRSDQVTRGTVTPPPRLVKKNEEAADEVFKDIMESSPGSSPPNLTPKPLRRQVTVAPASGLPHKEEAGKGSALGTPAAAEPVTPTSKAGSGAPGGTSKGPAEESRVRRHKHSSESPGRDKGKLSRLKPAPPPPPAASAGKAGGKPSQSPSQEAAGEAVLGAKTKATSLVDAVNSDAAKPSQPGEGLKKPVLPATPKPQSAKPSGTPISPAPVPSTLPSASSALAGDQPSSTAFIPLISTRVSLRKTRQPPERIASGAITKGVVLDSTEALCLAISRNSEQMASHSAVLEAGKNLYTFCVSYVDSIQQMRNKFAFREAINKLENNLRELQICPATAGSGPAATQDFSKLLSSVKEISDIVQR
Data set [4] addresses Tyrosine-protein kinase ABL1 (Homo sapiens, UniProt P00519, D382N). Put plainly: Displacement of Myr-GQQPGKVLGDQRRPSL(K-TAMRA)G-amide from N-terminal-truncated human c-ABL D382N mutant (46 to 534 residues) after 30 mins by fluorescence polarization binding assay.
Data set [5] can be described thus: Terminal plasma concentration in CD1 mouse at 100 mg/kg, ip after 180 mins. It is filed as ADME, organism-based. The following applies: read-out: Cp(T).
The nature of data set [6]: Intrinsic clearance in CD1 mouse liver microsomes at 0.5 uM measured up 60 mins in presence of NADPH by LC-MS/MS analysis. It is filed as ADME, Microsome. The following applies: 1 h. Background: Microsomes from liver hold many membrane-bound enzymes, among them those of drug oxidation.
Data set [7] is described as follows: Toxicity in CD1 mouse assessed as induction of hemolysis at 100 mg/kg, BID for 10 days. It is filed as organism-based. The following applies: in vivo, 240 h.
Data set [8] is described as follows: Terminal plasma concentration in CD1 mouse at 100 mg/kg, ip after 40 mins. The format is ADME, organism-based. The following applies: read-out: Cp(T).
In data set [9] the test system is Mus musculus. The data set can be described thus: In vivo activation of c-ABL in CD1 mouse assessed as fold increase in phosphorylated CRKL level at 100 mg/kg, ip after 40 mins relative to total CRK-L protein level. The format is functional.
Data set [10] deals with T1, Tyrosine-protein kinase ABL1. The data set can be described thus: Activation of full length human 6His-tagged c-Abl expressed in baculovirus expression system using abltide as substrate after 2 hrs by IMAP assay. The following applies: read-out: pIC50 (converted).
The subject of data set [11] is Mus musculus. The data set can be described thus: In vivo activation of c-ABL in CD1 mouse assessed as fold increase in phosphorylated CRKL level at 100 mg/kg, ip after 180 mins relative to total CRK-L protein level. The format is functional.

Values after ≈ are worked out from the molar mass of the structure shown.

For orientation: EC50 means the concentration at which the effect is half-maximal. For orientation: IC50 means the concentration that inhibits the measured activity by half.

Sequence of Tyrosine-protein kinase ABL1 (Homo sapiens, UniProt P00519, D382N) (P00519 as listed by the source D382N): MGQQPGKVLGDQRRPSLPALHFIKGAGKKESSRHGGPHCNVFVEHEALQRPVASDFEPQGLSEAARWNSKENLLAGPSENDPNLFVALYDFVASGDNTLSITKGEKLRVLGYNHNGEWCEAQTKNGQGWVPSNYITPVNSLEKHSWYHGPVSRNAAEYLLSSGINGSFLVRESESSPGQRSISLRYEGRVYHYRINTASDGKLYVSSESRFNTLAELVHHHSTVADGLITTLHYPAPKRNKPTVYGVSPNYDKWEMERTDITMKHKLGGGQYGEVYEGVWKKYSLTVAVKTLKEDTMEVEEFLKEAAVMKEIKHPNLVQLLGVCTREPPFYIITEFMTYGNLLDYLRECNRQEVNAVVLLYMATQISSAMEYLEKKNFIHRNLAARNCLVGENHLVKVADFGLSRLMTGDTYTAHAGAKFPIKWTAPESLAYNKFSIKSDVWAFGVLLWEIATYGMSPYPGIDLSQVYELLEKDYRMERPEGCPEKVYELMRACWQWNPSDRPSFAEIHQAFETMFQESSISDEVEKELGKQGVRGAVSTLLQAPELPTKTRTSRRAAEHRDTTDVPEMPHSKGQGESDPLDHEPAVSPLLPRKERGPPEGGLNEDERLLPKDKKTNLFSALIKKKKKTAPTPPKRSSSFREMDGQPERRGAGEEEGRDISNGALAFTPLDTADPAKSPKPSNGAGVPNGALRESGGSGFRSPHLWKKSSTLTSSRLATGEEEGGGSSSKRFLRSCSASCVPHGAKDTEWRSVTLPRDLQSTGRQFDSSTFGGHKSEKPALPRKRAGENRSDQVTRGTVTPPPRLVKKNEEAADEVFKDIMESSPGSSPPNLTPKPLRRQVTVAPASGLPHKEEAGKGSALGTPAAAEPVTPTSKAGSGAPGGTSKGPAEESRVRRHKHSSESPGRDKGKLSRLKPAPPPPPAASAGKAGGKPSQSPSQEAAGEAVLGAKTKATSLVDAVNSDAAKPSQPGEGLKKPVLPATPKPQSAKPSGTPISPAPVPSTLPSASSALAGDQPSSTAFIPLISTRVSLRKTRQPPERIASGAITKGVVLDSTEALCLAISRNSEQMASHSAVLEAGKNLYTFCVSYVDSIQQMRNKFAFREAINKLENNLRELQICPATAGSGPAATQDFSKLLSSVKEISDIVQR

Regarding `N#CCCC(=O)NC1=NN(c2ccc(Cl)c(Cl)c2)CC1`, the Papp at 3 h in data set [1] was found to be 35.5 ×10⁻⁶ cm/s. The solubility kinetic at 1 h in data set [2] worked out at 39 µM (≈ 12.1 µg/mL). The EC50 in data set [3] was 794 nM. The same molecule showed an IC50 in [4] of 316 nM. The concentration at 3 h in [5] was found to be 17600 ng/mL. In data set [6], the CLint was under 10 µL/min/mg. Further, in data set [7], the Activity entry was “Toxic”. In addition, the concentration at 40 min in data set [8] turned out to be 15600 ng/mL. Besides, the “fold change (FC)” value with Mus musculus [9] was 19; in the data set with Mus musculus [11], 35. In addition, the EC50 for c-Abl activation in data set [10] was 251 nM.
Take `N#CCC(=O)Nc1nsc(-c2ccc(Cl)c(Cl)c2)n1`: in data set [1], the Papp at 3 h came out at 28 ×10⁻⁶ cm/s. In addition, the solubility kinetic at 1 h in [2] came out at 69 µM (≈ 21.6 µg/mL). The EC50 in data set [3] was 15800 nM. Further, the IC50 in [4] is 2510 nM. For the same molecule, in data set [10], the EC50 for c-Abl activation was 2000 nM.
The corresponding values for `O=C(NC1=NN(c2ccc(Cl)c(Cl)c2)CC1CCO)c1ccncc1` (racemic) are 33.5 ×10⁻⁶ cm/s, 167 µM (≈ 63.3 µg/mL), 3160 nM, 158 nM and 100 nM.
On to `CC(=O)Nc1nc(-c2ccc(Cl)c(F)c2)cs1`, for which the Papp at 3 h in data set [1] was 35 ×10⁻⁶ cm/s. Further, in [2], the solubility kinetic at 1 h was determined as 5 µM (≈ 1.35 µg/mL). The molecule further showed a concentration giving a half-maximal response (EC50) in data set [3] of 50100 nM. The molecule also gave an IC50 in data set [4] of 794 nM. Further, in data set [10], the EC50 for c-Abl activation was 3160 nM.
In the same order, the values of `O=C(NC1=NN(c2ccc(Cl)c(Cl)c2)CC1)c1cncnc1` are 35 ×10⁻⁶ cm/s, 8 µM (≈ 2.69 µg/mL), 631 nM, 501 nM and 251 nM.
In the same order, the values of `O=C(NC1=NN(c2ccc(Cl)c(Cl)c2)CC1)c1ccncc1F` are 28 ×10⁻⁶ cm/s, 36 µM (≈ 12.7 µg/mL), 1580 nM, 200 nM and 126 nM.
In the same order, the values of `O=C(Nc1nc(-c2ccc(Cl)c(Cl)c2)cs1)C1CC1` are 22.7 ×10⁻⁶ cm/s, 3 µM (≈ 0.94 µg/mL), over 50100 nM, 251 nM and 158 nM.
On to `O=C(NC1=NN(c2ccc(Cl)c(Cl)c2)CC1)c1ccncn1`, for which, in data set [1], the Papp at 3 h is 32 ×10⁻⁶ cm/s. In addition, the solubility kinetic at 1 h in data set [2] is 13 µM (≈ 4.37 µg/mL). Further, a half-maximal effect in data set [3] (EC50) was put at 39800 nM. In data set [4], this molecule showed an IC50 of 1000 nM. In data set [10], the EC50 for c-Abl activation was 15800 nM.
The corresponding values for `N#CCC(=O)Nc1cccc(-c2ccc(Cl)c(Cl)c2)n1` are 21.5 ×10⁻⁶ cm/s, 1 µM (≈ 0.306 µg/mL), over 50100 nM, 1580 nM and 12600 nM.
In the case of `CC(=O)NC1=NN(c2ccc(Cl)c(Cl)c2)[C@H](C)C1`, the Papp at 3 h in data set [1] amounted to 41 ×10⁻⁶ cm/s. Moreover, the solubility kinetic at 1 h in [2] is 173 µM (≈ 49.5 µg/mL). In addition, the EC50 in data set [3] is 10000 nM. This molecule also gave an IC50 in data set [4] of 1580 nM. Further, in data set [10], the EC50 for c-Abl activation was 2000 nM.
The corresponding values for `O=C(NC1=NN(c2ccc(Cl)c(Cl)c2)CC1CCO)c1cccnc1` (racemic) are 19 ×10⁻⁶ cm/s, 192 µM (≈ 72.8 µg/mL), 7940 nM, 251 nM and 126 nM.
With `O=C(Nc1nc(-c2ccc(Cl)c(Cl)c2)cs1)c1cncs1`, the Papp at 3 h in data set [1] was 6.1 ×10⁻⁶ cm/s. For the same molecule, the solubility kinetic at 1 h in data set [2] was found to be 2 µM (≈ 0.713 µg/mL). This molecule also showed an EC50 in data set [3] of over 50100 nM. In data set [4], this molecule gave an IC50 of 200 nM. In addition, the EC50 for c-Abl activation in data set [10] is 501 nM.
The corresponding values for `CC(=O)Nc1nc(-c2ccc(Cl)c(C)c2)cs1` are 14 ×10⁻⁶ cm/s, 1 µM (≈ 0.267 µg/mL), over 50100 nM, 794 nM and 31600 nM.
In the same order, the values of `O=C(Nc1nc(-c2ccc(Cl)c(Cl)c2)cs1)c1cccnc1` are 37 ×10⁻⁶ cm/s, 20 µM (≈ 7 µg/mL), over 50100 nM, 200 nM and 398 nM.

The values are drawn from ChEMBL document CHEMBL4411335, “Identification and Optimization of Novel Small c-Abl Kinase Activators Using Fragment and HTS Methodologies” (J Med Chem, 2019).
